From patent publication US9433663B2, “Mobilization of hematopoietic stem cells” (Children's Hospital Medical Center, priority 2008, dated 2016) come the findings set out here.

In one test the test system is donor cell engraftment. Put plainly: Example 9 mobilization as preparative regimen for HSC transplantation. To be noted: compared to the non-mobilization control. In kind it is in vivo, mice. The procedure: If the microenvironmental niches are vacated after CASIN exposure, donor HSCs might engraft better in hosts treated with a mobilizing agent such as CASIN compared with non-mobilized controls. To test this, bone marrow transplantation is performed on recipient mice which are pre-conditioned with CASIN. […] Additionally, AMD3100, G-CSF, and control medium are used in parallel with CASIN as controls.
Briefly, mice are treated with CASIN, and 4×10^7 donor bone marrow cells from congenic mouse strain are transplanted 48 h later. Donor cell engraftment is assayed at 3 months using the congenic markers by flow cytometry.
Additionally, multiple cycles of mobilization with CASIN may increase the number of available niches. Therefore, this study investigates whether repeated cycles of CASIN mobilization, each followed by donor cell transplantation, could result in increased engraftment. Briefly, mice receive one weekly injection of CASIN on 3 consecutive weeks and 4×10^7 donor marrow cells are transplanted 48 hours after each mobilization. Control animals also received 3 weekly infusions of 4×10^7 donor marrow cells but no CASIN. And the donor engraftment is assayed at 3 months after transplantation as well.

The subject of a further test is C57Bl/6 mice. Put plainly: mobilization of colony-forming progenitors to peripheral blood, CFU-C assay. It counts as in vivo. Conditions: C57Bl/6 mice, FIG. 8b. The procedure:
Whether CASIN administration can induce mobilization of HSC/Ps to peripheral blood of C57Bl/6 mice, mimicking the phenotype observed in Cdc42 conditional knockout mice, was evaluated. First of all, mobilization of hematopoietic progenitor cells was examined by CFU-C assays functionally (FIG. 3a). […] Secondarily, to further explore the ability of CASIN to mobilize LT-HSC which is crucial for long-term repopulation of the mobilized cells, serial transplantations were carried out, where 20 million PB from CASIN-mobilized C57Bl/6 mice was transplanted into primary recipient of NOD/SCID mice, and subsequent secondary and tertiary transplants were finished as well using prior BMs (FIG. 3c). Donor chimerisms were assessed by using H2K^b congenic marker which is positive for donors of C57Bl/6 strain and negative for recipients of NOD/SCID strain. […] Therefore, the studies show CASIN can efficiently mobilize colony-forming hematopoietic progenitors and LT-HSCs with self-renewal and multi-lineage differentiation capacity. Thirdly, to further investigate the potential of CASIN to vacate the BM niche after mobilization, six-color staining of the BM cells was performed from C57Bl/6 mice with or without CASIN treatment followed by FACS analysis. […] Therefore, a transient decrease in BM and a concomitant increase in peripheral organs of HSCs would be beneficial to facilitating the subsequent HSC transplantation.
To determinate the hematopoietic progenitor content in the PB of mobilized C57Bl/6 mice, colony-forming unit assay was performed as described previously. Briefly, 200 ul PB was plated in triplicate into methylcellulose (MethocultM3434; StemCell Technology, Vancouver, BC, Canada). Colonies were then counted 7 d later.

Test [1] has as its system Fancc−/− mice. Put plainly: Example 10 preparative regimen for BM transplantation in Fancc−/− mice. To be noted: preconditioning before BM transplantation. In kind it is in vivo. The procedure: Four preparative regimens before BM transplantation on Fancc−/− mice are used to evaluate the capacity of CASIN as a preconditioning agent: (1) Control group; (2) CY group: a single dose of 40 mg/kg CY intraperitoneally; (3) CASIN group: 2.5 mg/Kg; (4) combination of CASIN and CY: one injection of CASIN is given in combination with reduced doses of CY.
Fancc−/− mice are preconditioned with each of these four regimens, and 4×10^7 BM cells from congenic strain mice are transplanted into preconditioned mice by tail vein injection. Mice that underwent transplantation are bled every four weeks to monitor the chimerism of donor-derived cells in PB. And at 3 m, the mice are sacrificed to evaluate the engraftment of donor-derived cells in BM.

The test system of test [2] is Fancc−/− mice. Put plainly: Example 10 HSC/P mobilization in Fancc−/− mice. Conditions: mouse, in vivo. The procedure:
The effects of CASIN on HSC/P mobilization in Fancc−/− mice are investigated under four groups in parallel with WT mice: (1) Control group; (2) G-CSF group: 2.5 μg G-CSF per mouse, twice a day for 4 d120; (3) CASIN group: 2.5 mg/Kg; (4) combination of CASIN and G-CSF: one injection of CASIN is given 40 h before the end of 4 d G-CSF administration.
Fancc−/− or WT mice are mobilized with regimens corresponding to the four experimental groups. Then PB are harvested by cardiac puncture. Phenotypically, the absolute number and percentage of HSC/Ps in PB after mobilization are determined as those of LSK (Lin− Sca+ c-Kit+) cells by flow cytometry. Functionally, CFU-C assay is performed in triplicate for each mouse by using PB of mice from different experimental groups, and CFU-GM, CFU-GEMM, BFU-E, and CFU-E are distinguished by morphology and using cytokine combinations. Furthermore, the long-term repopulation capacity of the mobilized HSCs is evaluated using a competitive repopulating assay and subsequent secondary transplantation as discussed above.

Consider `c1cc(CN2CCCNCCNCCCNCC2)ccc1CN1CCCNCCNCCCNCC1` [AMD3100, reference compound], for which the “engraftment of donor cells in pre-conditioned recipients” value with donor cell engraftment is “significantly increased engraftment of donor cells”. Besides, in the test with C57Bl/6 mice, the “mobilization of colony-forming progenitors” value is listed as “can mobilize colony-forming progenitors”.

Consider `O=P1(N(CCCl)CCCl)NCCCO1` (stereo not drawn) [CY, reference compound], for which the “repopulation and engraftment of donor derived cells in PB and BM of Fancc−/− recipient mice” value in the test with Fancc−/− mice [1] was “comparable engraftment and repopulation”.

B1: G-CSF: growth factor, currently available HSPC mobilization agent (protein, UniProt P09919 31-207, looked up)
Granulocyte …: TPLGPASSLPQSFLLKCLEQVRKIQGDGAALQEKLVSECATYKLCHPEELVLLGHSLGIPWAPLSSCPSQALQLAGCLSQLHSGLFLYQGLLQALEGISPELGPTLDTLQLDVADFATTIWQQMEELGMAPALQPTQGAMPAFASAFQRRAGGVLVASHLQSFLEVSYRVLRHLAQP
As for B1, the “engraftment of donor cells in pre-conditioned recipients” value in the test with donor cell engraftment was “significantly increased engraftment of donor cells”. In the test on Fancc−/− mice [2], the “mobilization of HSC/Ps (LSK cells, progenitor colonies) in Fancc−/− mice” value is given as “less effective mobilizer of HSC/Ps in Fancc−/− mice than in WT mice”. In addition, the “mobilization of colony-forming progenitors” value with C57Bl/6 mice is “can mobilize colony-forming progenitors”.
